Data published in patent publication US8445441B2, “Inhibitors of BCL-2” (Case Western Reserve University, priority 2007, dated 2013).

Tests used:
Bcl-2-IP3R interaction [1] = biological target: T1, Bcl-2-IP3R interaction (Homo sapiens, UniProt P10415); test: coimmunoprecipitation of Bcl-2 with IP3R from cell extracts; format: binding; set-up: expressed in transfected cells; host or cells: Bcl-2(+) WEHI7.2 cells; also Jurkat cells (endogenous Bcl-2); details: 400 μM peptide; Bcl-2(+) WEHI7.2 and Jurkat cell extracts
T1 sequence (P10415 whole entry): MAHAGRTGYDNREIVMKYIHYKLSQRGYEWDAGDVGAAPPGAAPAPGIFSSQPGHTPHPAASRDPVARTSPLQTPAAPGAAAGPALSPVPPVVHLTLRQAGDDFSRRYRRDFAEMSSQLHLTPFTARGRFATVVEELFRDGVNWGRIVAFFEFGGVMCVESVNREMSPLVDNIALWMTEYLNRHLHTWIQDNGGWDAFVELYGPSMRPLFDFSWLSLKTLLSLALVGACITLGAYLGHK
Procedure: FIG. 4 illustrates an IP3R Peptide Inhibits Bcl-2-IP3R Interaction but Not Bim-Bcl-2 Interaction. (A and D) IP3R was immunoprecipitated from extracts of Bcl-2(+) WEHI7.2 cells (C) or Jurkat cells in the presence of 400 μM peptides. Peptide 2, but not peptide 1 or control peptide, inhibited the Bcl-2-IP3R coimmunoprecipitation. Summary of Bcl-2 immunoblot signal intensities in three […] experiments identical to (C) (mean±SEM). (B) Bcl-2 was immunoprecipitated from Bcl-2(+) WEHI7.2 cell extracts in the presence of 400 μM peptides, and coimmunoprecipitation of Bim was detected by anti-Bim immunoblotting. […] (E) Summary of Bim immunoblot signal intensities in three experiments identical to (B) (mean±SEM).
Since the IP3R binding region was narrowed down to the 80 amino acid subdomain 3a1 (aa 1347-1426), we designed two 20 amino acid peptides (peptide 1, aa 1365-1384 (SEQ ID NO:2); peptide 2, aa 1389-1408 (SEQ ID NO:3)) based on the degree of homology in this region among different IP3R isoforms. […] The inhibitory effect of peptide 2 on Bcl-2-IP3R interaction was also detected in coimmunoprecipitation assays employing both Bcl-2(+) WEHI7.2 cells (FIGS. 4A and 4B) and Jurkat cells (FIG. 4C). […]

Jurkat cells [2] = test: anti-CD3-induced apoptosis (apoptotic nuclei); format: cell-based; details: 60 μM peptide with Chariot, 5 μg/ml anti-CD3, 24 hr, anti-CD3 alone 20%-30%
Procedure: FIG. 7 illustrates peptide 2 Enhances Anti-CD3-Induced Apoptosis in Bcl-2-Positive Cells (A) Typical apoptotic nuclear morphology (arrow, Hoechst 33342 stain) 24 hr after 5 μg/ml anti-CD3 treatment of Jurkat cells. Scale bars, 10 μm. (B) Bcl-2(−) and Bcl-2(+) WEHI7.2 cells were pre-incubated±60 μM peptides plus Chariot reagent and then incubated with 20 μg/ml anti-CD3 for 24 hr. Symbols represent the percentage of cells (mean±SEM) with apoptotic nuclei in three experiments for Bcl-2(−) and five experiments for Bcl-2(+) cells (200 cells counted per coverslip). (C) Jurkat cells were pre-incubated±60 μM peptides±Chariot reagent and then incubated with 5 μg/ml anti-CD3 for 24 hr. Symbols represent the percentage of cells (mean±SEM) with apoptotic nuclei in five experiments (240 cells counted per coverslip).
Peptide 2 also attenuated Bcl-2's inhibition of anti-CD3-induced apoptosis in Jurkat cells. In preliminary studies (data not shown), we tested several anti-CD3 concentrations. Higher concentrations of anti-CD3 induced high levels of apoptosis that might obscure the effect of the peptide. We therefore used 5 μg/ml anti-CD3, sufficient to induce 20%-30% apoptosis.

Bcl-2-IP3R interaction [3] = biological target: T1, Bcl-2-IP3R interaction; test: GST pull-down of Bcl-2 from Bcl-2(+) WEHI7.2 extracts with GST-IP3R domain 3; format: binding, mouse; set-up: expressed in transfected cells; host or cells: Bcl-2(+) WEHI7.2 cells (source of Bcl-2); details: 1 mM peptide
Source text: To identify where Bcl-2 interacts on the IP3R, we used a series of GST-IP3R fusion constructs corresponding to five fragments covering the first N-terminal 2216 amino acids and 1 fragment corresponding to the last 160 amino acids of mouse IP3R type 1 (FIG. 3). These fragments are located in the cytoplasm and coincide with “natural” domains generated by limited proteolysis. The transmembrane domain was not included. After purification, fragments migrated as single prominent bands corresponding to their expected molecular weights, although some minor degradation products were detected.
The first set of GST pull-down experiments utilized extracts of Bcl-2(+) WEHI7.2 cells and Jurkat cells as two independent sources of Bcl-2. Cell extracts were incubated with GST-IP3R fragments prebound to glutathione sepharose resin, with equal loading of the GST-IP3R fragments. […] These experiments were repeated a total of five times with the same result. It is important to note that, following incubation of cell extracts with GST-IP3R fragments on the glutathione sepharose resin, the resin was washed extensively.
Since the IP3R binding region was narrowed down to the 80 amino acid subdomain 3a1 (aa 1347-1426), we designed two 20 amino acid peptides (peptide 1, aa 1365-1384 (SEQ ID NO:2); peptide 2, aa 1389-1408 (SEQ ID NO:3)) based on the degree of homology in this region among different IP3R isoforms. Also, preference was given to regions that have beta-turn and/or α-helical structures, rather than random-coil or nonstructured sequences, expecting that one or both of the peptides could inhibit the Bcl-2-IP3R interaction. Furthermore, the C-terminal region of domain 3a1 was not selected because of its lower accessibility and unpredictable secondary structure (Invitrogen PeptideSelect Design Tool). The scrambled sequence of peptide 2 was also synthesized and used as a control. […] The inhibitory effect of peptide 2 on Bcl-2-IP3R interaction was also detected in coimmunoprecipitation assays employing both Bcl-2(+) WEHI7.2 cells (FIGS. 4A and 4B) and Jurkat cells (FIG. 4C). […]

Jurkat cells [4] = test: anti-CD3-induced Ca2+ elevation by digital imaging; format: cell-based; details: Jurkat cells; 60 μM peptide with Chariot reagent
Procedure: (§1) FIGS. 6A-D illustrates peptide 2 (SEQ ID NO:3) Reverses Bcl-2's Inhibition of Anti-CD3-Induced Ca^2+Elevation. (A) Representative Ca^2+ traces (each the mean of ˜65 cells) recording anti-CD3 (arrow, time of addition)-induced Ca^2+ elevation in Bcl-2(+) WEHI7.2 cells. Peptide (60 μM) uptake was facilitated by Chariot reagent. (B) Peak anti-CD3 induced Ca^2+ elevation in Bcl-2(−) and Bcl-2(+) WEHI7.2 cells treated with peptides as in (A) [mean±SEM, five experiments for Bcl-2(−) and seven experiments for Bcl-2(+) cells, with mean 68 cells per sample per experiment]. (C) Representative Ca^2+ traces in Jurkat cells (mean 85 cells each). Treatment conditions are the same as in (A), except that a control involving addition of peptide 2 without Chariot reagent has been added. (D) Peak anti-CD3-induced Ca^2+ elevation in Jurkat cells treated with peptides as in (C) (mean±SEM, seven experiments, mean 81 cells per sample per experiment).
(§2) Next we investigated whether peptide 2 also reverses Bcl-2's inhibitory effect on Ca^2+ release through the IP3R in Bcl-2(+) and (−) WEHI7.2 clones, newly derived WEHI7.2 mixed populations exogenously expressing Bcl-2, and Jurkat cells. Optimal conditions for peptide delivery and anti-CD3 concentration were determined in preliminary experiments. Peptide delivery in the lipid bilayer is 100%, whereas the penetration of peptide 2 into cells is much less, accounting for the lesser effect in cells. Therefore, a higher concentration of peptide (60 μM) was delivered into cells using the Chariot delivery reagent. Cytoplasmic Ca^2+ concentration was continuously measured at a single-cell level by digital imaging during anti-CD3 treatment. Representative Ca^2+ traces from Bcl-2(+) WEHI7.2 cells are shown in FIG. 6A, and the average Ca^2+ elevation induced by anti-CD3 in seven experiments is summarized in FIG. 6B. Observed variations in lag phase are at least partially attributable to the fact that lymphocytes are only loosely adherent to coverslips and thus rapid buffer exchange is not possible during antibody additions. Peptide 2 enhanced anti-CD3-induced Ca^2+ elevation in Bcl-2(+) WEHI7.2 cells by 40%. […] Peptide 2 had no effect on Ca^2+ elevation when added to the cells in the absence of the Chariot reagent. […] The low Bcl-2 level in Jurkat cells and the barely detectable endogenous Bcl-2 in Bcl-2(−) WEHI7.2 cells are consistent with the higher amplitude and longer duration of the Ca^2+ response in these cells in contrast to Bcl-2(+) WEHI7.2 cells (compare FIGS. 6A and 6B to FIGS. 6C and 6D). Thus, peptide 2 modulated anti-CD3-induced Ca^2+ elevation in both Bcl-2(+) WEHI7.2 cells and Jurkat cells, consistent with the ability of peptide 2 to disrupt Bcl-2-IP3R interaction.

WEHI7.2 cells = test: anti-CD3-induced Ca2+ elevation by digital imaging; format: cell-based; details: Bcl-2(+) WEHI7.2 cells; 60 μM peptide with Chariot reagent
Procedure: as §1, §2

Bcl-B = biological target: T2, Bcl-B (Homo sapiens, UniProt Q9HD36); details: read-out: inhibitory concentration of 50% (IC50), displacing BH3 peptides; cited from earlier work
T2 sequence (Q9HD36 1-204): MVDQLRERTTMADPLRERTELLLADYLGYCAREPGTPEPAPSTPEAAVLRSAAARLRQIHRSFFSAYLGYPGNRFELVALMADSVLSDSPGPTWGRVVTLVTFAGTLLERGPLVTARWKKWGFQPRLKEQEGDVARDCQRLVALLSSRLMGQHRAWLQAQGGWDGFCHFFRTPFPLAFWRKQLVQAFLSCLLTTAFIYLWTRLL

Bfl-1 = biological target: T3, Bfl-1 (Homo sapiens, UniProt Q16548); details: read-out: inhibitory concentration of 50% (IC50), displacing BH3 peptides; cited from earlier work
T3 sequence (Q16548 1-175): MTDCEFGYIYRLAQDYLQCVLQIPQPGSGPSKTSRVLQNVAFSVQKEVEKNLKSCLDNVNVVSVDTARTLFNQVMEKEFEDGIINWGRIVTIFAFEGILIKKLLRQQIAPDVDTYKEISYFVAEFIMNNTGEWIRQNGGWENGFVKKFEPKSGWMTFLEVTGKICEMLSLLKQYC

Bcl-XL = Bcl-XL (Homo sapiens, UniProt Q07817); details: read-out: inhibitory concentration of 50% (IC50), displacing BH3 peptides; cited from earlier work
Bcl-XL, sequence (Q07817 whole entry, species assumed): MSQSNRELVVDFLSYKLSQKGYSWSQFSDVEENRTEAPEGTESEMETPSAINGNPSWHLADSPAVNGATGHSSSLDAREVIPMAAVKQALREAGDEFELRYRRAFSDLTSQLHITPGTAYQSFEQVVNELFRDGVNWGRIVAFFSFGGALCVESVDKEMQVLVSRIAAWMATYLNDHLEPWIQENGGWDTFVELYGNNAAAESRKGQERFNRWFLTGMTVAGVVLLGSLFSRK

Molecule	inhibition of Bcl-2-IP3R coimmunoprecipitation (Bcl-2-IP3R interaction [1])	anti-CD3-induced apoptosis (percentage of apoptotic cells) (Jurkat cells [2])	amount of Bcl-2 bound to GST-IP3R domain 3 (Bcl-2-IP3R interaction [3])	enhancement of anti-CD3-induced Ca2+ elevation (Jurkat cells [4])	enhancement of anti-CD3-induced Ca2+ elevation (WEHI7.2 cells)	IC50 (Bcl-B) [nM]	IC50 (Bfl-1) [nM]	IC50 (Bcl-XL) [nM]
MDENSPLMYHIHLVELLAVC (listed as Homo sapiens) [peptide 1, 20 amino acid peptide, aa 1365-1384 of IP3R subdomain 3a1]	did not inhibit	did not have an effect	partially inhibited	did not	did not enhance	–	–	–
Cc1cc2c(C(C)C)c(O)c(O)c(C=O)c2c(O)c1-c1c(C)cc2c(C(C)C)c(O)c(O)c(C=O)c2c1O [Gossypol, 1,6,7,1′,6′,7′-Hexahydroxy-5,5′-diisopropyl-3,3′-dimethyl-[2,2′]binaphthalenyl-8,8′-dicarbaldehyde]	–	–	–	–	–	~500	~500	~500
